Test results as given in the supplement of paper PMC10307832.

Assays:
Test in all cases: relative viability (nuclei count vs DMSO), 5 days (fraction); higher = more cells survive
NCI-H1437 = system: NCI-H1437
Method in brief: (§1)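 Relative viability is defined as nuclei in treated wells over nuclei in vehicle wells. Duplicate plates were run and medians reported. Lung cancer cell lines in 1536-well plates were dosed by pin tool one day after seeding, with one drug or with a fixed anchor-drug dose plus five library-drug doses (not always all listed) in √10 steps, and nuclei were counted after 5 days.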

LOU-NH91 = system: LOU-NH91
Method in brief: as §1

NCI-H2228 = system: NCI-H2228
Method in brief: as §1

HCC-366 = system: HCC-366
Method in brief: as §1

NCI-H2170 = system: NCI-H2170
Method in brief: as §1

SK-LU-1 = system: SK-LU-1
Method in brief: as §1

NCI-H1355 = system: NCI-H1355
Method in brief: as §1

NCI-H647 = system: NCI-H647
Method in brief: as §1

NCI-H661 = system: NCI-H661
Method in brief: as §1

NCI-H2342 = system: NCI-H2342
Method in brief: as §1

NCI-H596 = system: NCI-H596
Method in brief: as §1

NCI-H1395 = system: NCI-H1395
Method in brief: as §1

BEN = system: BEN
Method in brief: as §1

HCC-44 = system: HCC-44
Method in brief: as §1

NCI-H2009 = system: NCI-H2009
Method in brief: as §1

EKVX = system: EKVX
Method in brief: as §1

NCI-H2087 = system: NCI-H2087
Method in brief: as §1

SK-MES-1 = system: SK-MES-1
Method in brief: as §1

NCI-H1734 = system: NCI-H1734
Method in brief: as §1

NCI-H2405 = system: NCI-H2405
Method in brief: as §1

LC-2-ad = system: LC-2-ad
Method in brief: as §1

HCC-827 = system: HCC-827
Method in brief: as §1

HARA = system: HARA
Method in brief: as §1

SMILES: Clc1ccc(Nc2nnc(Cc3ccncc3)c3ccccc23)cc1 [Vatalanib] + O=C(CCCCCCC(=O)Nc1ccccc1)NO [Vorinostat] (partner 1 µM)
- relative viability (NCI-H1437; first compound 0.04 µM): 0.836
- relative viability (NCI-H1437; first compound 0.1265 µM): 0.851
- relative viability (NCI-H1437; first compound 0.4 µM): 0.88
- relative viability (NCI-H1437; first compound 1.265 µM): 0.616
- relative viability (NCI-H1437; first compound 4 µM): 0.673
- relative viability (LOU-NH91; first compound 0.04 µM): 0.939
- relative viability (LOU-NH91; first compound 0.1265 µM): 0.874
- relative viability (LOU-NH91; first compound 0.4 µM): 0.955
- relative viability (LOU-NH91; first compound 1.265 µM): 0.783
- relative viability (LOU-NH91; first compound 4 µM): 0.882
- relative viability (NCI-H2228; first compound 0.04 µM): 0.795
- relative viability (NCI-H2228; first compound 0.1265 µM): 0.589
- relative viability (NCI-H2228; first compound 0.4 µM): 0.653
- relative viability (NCI-H2228; first compound 1.265 µM): 0.723
- relative viability (NCI-H2228; first compound 4 µM): 0.751
- relative viability (HCC-366; first compound 0.04 µM): 0.361
- relative viability (HCC-366; first compound 0.1265 µM): 0.434
- relative viability (HCC-366; first compound 0.4 µM): 0.451
- relative viability (HCC-366; first compound 1.265 µM): 0.254
- relative viability (HCC-366; first compound 4 µM): 0.394
- relative viability (NCI-H2170; first compound 0.04 µM): 0.858
- relative viability (NCI-H2170; first compound 0.1265 µM): 0.853
- relative viability (NCI-H2170; first compound 0.4 µM): 0.825
- relative viability (NCI-H2170; first compound 1.265 µM): 0.743
- relative viability (NCI-H2170; first compound 4 µM): 0.764
- relative viability (SK-LU-1; first compound 0.04 µM): 0.829
- relative viability (SK-LU-1; first compound 0.1265 µM): 0.798
- relative viability (SK-LU-1; first compound 0.4 µM): 1
- relative viability (SK-LU-1; first compound 1.265 µM): 0.721
- relative viability (SK-LU-1; first compound 4 µM): 0.8
- relative viability (NCI-H1355; first compound 0.04 µM): 0.684
- relative viability (NCI-H1355; first compound 0.1265 µM): 0.691
- relative viability (NCI-H1355; first compound 0.4 µM): 0.727
- relative viability (NCI-H1355; first compound 1.265 µM): 0.57
- relative viability (NCI-H1355; first compound 4 µM): 0.581
- relative viability (NCI-H647; first compound 0.04 µM): 0.658
- relative viability (NCI-H647; first compound 0.1265 µM): 0.685
- relative viability (NCI-H647; first compound 0.4 µM): 0.87
- relative viability (NCI-H647; first compound 1.265 µM): 0.641
- relative viability (NCI-H647; first compound 4 µM): 0.632
- relative viability (NCI-H661; first compound 0.04 µM): 0.8
- relative viability (NCI-H661; first compound 0.1265 µM): 0.872
- relative viability (NCI-H661; first compound 0.4 µM): 0.778
- relative viability (NCI-H661; first compound 1.265 µM): 0.775
- relative viability (NCI-H661; first compound 4 µM): 0.805
- relative viability (NCI-H2342; first compound 0.04 µM): 0.747
- relative viability (NCI-H2342; first compound 0.1265 µM): 0.714
- relative viability (NCI-H2342; first compound 0.4 µM): 0.741
- relative viability (NCI-H2342; first compound 1.265 µM): 0.762
- relative viability (NCI-H2342; first compound 4 µM): 0.69
- relative viability (NCI-H596; first compound 0.04 µM): 0.603
- relative viability (NCI-H596; first compound 0.1265 µM): 0.542
- relative viability (NCI-H596; first compound 0.4 µM): 0.672
- relative viability (NCI-H596; first compound 1.265 µM): 0.583
- relative viability (NCI-H596; first compound 4 µM): 0.608
- relative viability (NCI-H1395; first compound 0.04 µM): 0.71
- relative viability (NCI-H1395; first compound 0.1265 µM): 0.55
- relative viability (NCI-H1395; first compound 0.4 µM): 0.6
- relative viability (NCI-H1395; first compound 4 µM): 0.726
- relative viability (BEN; first compound 0.04 µM): 0.57
- relative viability (BEN; first compound 0.1265 µM): 0.625
- relative viability (BEN; first compound 0.4 µM): 0.594
- relative viability (BEN; first compound 1.265 µM): 0.561
- relative viability (BEN; first compound 4 µM): 0.61
- relative viability (HCC-44; first compound 0.04 µM): 1.11
- relative viability (HCC-44; first compound 0.1265 µM): 1.08
- relative viability (HCC-44; first compound 0.4 µM): 1.09
- relative viability (HCC-44; first compound 1.265 µM): 1.04
- relative viability (HCC-44; first compound 4 µM): 1.07
- relative viability (NCI-H2009; first compound 0.04 µM): 0.767
- relative viability (NCI-H2009; first compound 0.1265 µM): 0.741
- relative viability (NCI-H2009; first compound 0.4 µM): 0.735
- relative viability (NCI-H2009; first compound 1.265 µM): 0.732
- relative viability (NCI-H2009; first compound 4 µM): 0.687
- relative viability (EKVX; first compound 0.04 µM): 0.773
- relative viability (EKVX; first compound 0.1265 µM): 0.767
- relative viability (EKVX; first compound 0.4 µM): 0.831
- relative viability (EKVX; first compound 1.265 µM): 0.655
- relative viability (EKVX; first compound 4 µM): 0.665
- relative viability (NCI-H2087; first compound 0.04 µM): 0.836
- relative viability (NCI-H2087; first compound 0.1265 µM): 0.6
- relative viability (NCI-H2087; first compound 0.4 µM): 0.595
- relative viability (NCI-H2087; first compound 1.265 µM): 0.701
- relative viability (NCI-H2087; first compound 4 µM): 0.533
- relative viability (SK-MES-1; first compound 0.04 µM): 1.13
- relative viability (SK-MES-1; first compound 0.1265 µM): 1.11
- relative viability (SK-MES-1; first compound 0.4 µM): 1.12
- relative viability (SK-MES-1; first compound 1.265 µM): 0.98
- relative viability (SK-MES-1; first compound 4 µM): 0.985
- relative viability (NCI-H1734; first compound 0.04 µM): 0.804
- relative viability (NCI-H1734; first compound 0.1265 µM): 0.812
- relative viability (NCI-H1734; first compound 0.4 µM): 0.937
- relative viability (NCI-H1734; first compound 1.265 µM): 0.761
- relative viability (NCI-H1734; first compound 4 µM): 0.775
- relative viability (NCI-H2405; first compound 0.04 µM): 1.09
- relative viability (NCI-H2405; first compound 0.1265 µM): 0.938
- relative viability (NCI-H2405; first compound 0.4 µM): 1.06
- relative viability (NCI-H2405; first compound 4 µM): 0.976
- relative viability (LC-2-ad; first compound 0.04 µM): 0.695
- relative viability (LC-2-ad; first compound 0.1265 µM): 0.743
- relative viability (LC-2-ad; first compound 0.4 µM): 0.768
- relative viability (LC-2-ad; first compound 1.265 µM): 0.682
- relative viability (LC-2-ad; first compound 4 µM): 0.676
- relative viability (HCC-827; first compound 0.04 µM): 0.767
- relative viability (HCC-827; first compound 0.1265 µM): 0.953
- relative viability (HCC-827; first compound 1.265 µM): 0.741
- relative viability (HCC-827; first compound 4 µM): 0.86
- relative viability (HARA; first compound 0.04 µM): 0.643
- relative viability (HARA; first compound 0.1265 µM): 0.51
- relative viability (HARA; first compound 0.4 µM): 0.479
- relative viability (HARA; first compound 1.265 µM): 0.566
- relative viability (HARA; first compound 4 µM): 0.481
